Patent US9592223B2, “Small molecule inhibitors of MALT1” (Cornell University, priority 2012, dated 2017)

Legend:
[1] = system: MALT1 dependent ABC-DLBCL cells HBL-1, TMD8, OCI-Ly3 and OCI-Ly10; assay: Growth inhibition, MALT1 dependent cell lines; type: cell-based, human; details: increasing concentrations, single dose, 48 hr
Procedure: (§1) Endogenous MALT1 activity was evaluated by Western blotting for A20, BCL10 and CYLD; and NF-κB activation, by phospho-IκB-α and total IκB-α. Dependence on MALT1 proteolytic activity for proliferation was tested by 50[…]μM Z-VRPR-FMK treatment for 48 hr. […] The U2932 and HLY1 ABC-DLBCL cell lines harbor mutations in TAK1 and A20, which activate NF-κB signaling downstream of MALT1.
(§2) Cell proliferation was determined by ATP quantification using a luminescent method (CellTiter-Glo, Promega, Madison, Wis.) and Trypan blue dye-exclusion (Sigma, St. Louis, Mo.). Cell viability in drug-treated cells was normalized to their respective controls (fractional viability) and results are given as 1-fractional viability. […]
(§3) DLBCL cell lines were grown in exponential growth conditions during the 48 hr of treatment. Cell proliferation was determined by ATP quantification using a luminescent method (CellTiter-Glo, Promega, Madison, Wis.) and Trypan blue dye-exclusion (Sigma, St. Louis, Mo.). Luminescence was measured using the Synergy4 microplate reader (BioTek Instruments, Winooski, Vt.). Standard curves for each cell line were calculated by plotting the cell number (determined by the Trypan blue method) against their luminescence values and number of cells was calculated accordingly. […]

[2] = system: GCB-DLBCL cell lines OCI-Ly7 and OCI-Ly1; assay: Growth inhibition, GCB-DLBCL cell lines; type: cell-based, human; details: increasing concentrations, single dose, 48 hr
Procedure: as §1, §2, §3

[3] = system: MALT1-mediated cleavage of CYLD; assay: MALT1-mediated cleavage of CYLD in HBL-1 cells, Western blotting and densitometry; type: cell-based, human
Procedure: A total of 704 analog compounds from available libraries with similarity score ≧70% (Tanimoto similarity functions) were screened by LZ-MALT1 fluorescence assay.
Equal amounts of total protein (20-75 μg) were separated on sodium dodecyl sulfate-polyacrylamide gel electrophoresis (SDS-PAGE), and electrotransferred onto nitrocellulose membranes. Membranes were incubated with primary antibodies (MALT1, BCL-10, CYLD from Santa Cruz Biotechnologies, Santa Cruz, Calif.; A20 from eBioscience, San Diego, Calif.; phospho-IκB-α, IκB-α, c-REL, RELB from Cell Signaling, Danvers, Mass. and α-Tubulin from Sigma), followed by secondary antibodies conjugated to horseradish peroxidase, which were detected by chemiluminescence (Pierce, Thermo Scientific, Rockford, Ill.).

[4] = target: Caspase-9 (Homo sapiens, UniProt P55211); assay: Caspase selectivity; type: biochemical
[5] = system: c-REL; assay: c-REL flow cytometry of whole cells or isolated nuclei, HBL-1 cells; type: cell-based, human; details: 200 nM MI-2 or 50 μM Z-VRPR-FMK, 24 hr
Procedure: MALT1 mediates c-REL translocation to the nucleus following BCR stimulation (Ferch et al., 2007). […] This selectivity towards c-REL had also been previously shown in MALT1 knockout mice and after MALT1 cleavage inhibition by the MALT1 blocking peptide Z-VRPR-FMK (Ferch et al., 2009; Ferch et al., 2007; Hailfinger et al., 2011).
[…] was studied by flow cytometry. Cells were treated as indicated and total cells or isolated nuclei were prepared and stained for c-REL. Total cells were fixed and permeabilized using the Intrastain kit from Dako (Glostrup, Denmark). For nuclei extraction, cells were resuspended in cold nuclei extraction buffer (320 mM sucrose, 5 mM MgCl2, 10 mM HEPES, 1% Triton X-100 at pH 7.4), incubated for 10 min on ice and washed twice with nuclei wash buffer (320 mM sucrose, 5 mM MgCl2, 10 mM HEPES at pH 7.4, no Triton X-100). Nuclei yield and integrity were confirmed by microscopic examination with trypan blue staining. For labeling, nuclei wash buffer was supplemented with 1% BSA, 0.1% sodium azide and 1:100 c-REL antibody (Cell Signaling). Cells were washed then incubated with Alexa Fluor-488 conjugated secondary antibodies from Invitrogen. Cells were washed again and stained with DAPI followed by flow cytometry.

[6] = system: HBL-1 cells; assay: MI-2 intracellular concentration in HBL-1 cells by LC-MS; type: in vitro ADME, human
[7] = system: HBL-1 and TMD8 cells; assay: Trypan blue exclusion and Annexin V+ DAPI- apoptosis over 14 days, ABC-DLBCL lines; type: cell-based, human; details: treated daily at GI25 and GI50, every 48 hr for 14 days
Procedure: Cell proliferation was examined using the CFSE dilution assay by flow cytometry on viable cells at 48, 72 and 96 h. […] Trypan blue exclusion and apoptosis assessed by Annexin V^+ DAPI^− flow cytometry was measured every 48 hr for a period of 14 days.
Apoptosis was assessed by AnnexinV-APC/DAPI (BD Pharmingen) staining followed by flow cytometry.

[8] = system: primary human GCB DLBCL cells; assay: Primary human DLBCL cells ex vivo, GCB cases, Trypan blue; type: cell-based; details: 0.8 μM, 48 hr
Procedure: After 48 hr exposure, cell number and viability were determined using Trypan blue.
Patient de-identified tissues were obtained in accordance with the guidelines and approval of the Weill Cornell Medical College Review Board. Patient samples were processed as previously described (Cerchietti et al., 2010). Briefly, single cell suspensions from lymph node biopsies were obtained by physical disruption of tissues followed by cell density gradient separation (Fico/Lite LymphoH, Atlanta Biologicals, Lawrenceville, Ga.). Cell number and viability were determined by Trypan blue exclusion. Primary DLBCL cells were cultured in 96-well plates. Cells were grown in advanced RPMI medium with 20% FBS supplemented with antibiotics for 48 hours. […] After 48 hr of exposure, viability was determined by using Trypan blue (Sigma). All samples were normalized to their own replicate control. Statistical significance was calculated using paired T-test.

Sequence of Caspase-9 (P55211 whole entry, species assumed): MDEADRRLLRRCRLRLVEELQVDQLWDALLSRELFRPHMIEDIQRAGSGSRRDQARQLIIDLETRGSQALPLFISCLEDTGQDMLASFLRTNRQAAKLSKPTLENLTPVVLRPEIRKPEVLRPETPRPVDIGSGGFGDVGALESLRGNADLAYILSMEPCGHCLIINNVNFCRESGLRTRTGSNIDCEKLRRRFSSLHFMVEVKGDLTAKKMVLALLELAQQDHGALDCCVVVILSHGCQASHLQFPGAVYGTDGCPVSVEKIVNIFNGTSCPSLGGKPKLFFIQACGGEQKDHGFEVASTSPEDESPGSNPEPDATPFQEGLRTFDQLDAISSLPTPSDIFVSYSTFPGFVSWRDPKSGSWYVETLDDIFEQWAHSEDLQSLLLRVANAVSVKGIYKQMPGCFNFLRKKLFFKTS

For COCCOc1nc(-c2ccc(Cl)c(Cl)c2)n(-c2ccc(NC(=O)CCl)cc2)n1 [MI-2], the growth inhibition [1] was “selective for MALT1 dependent cell lines”, the growth inhibition [2] was “resistant” and the “MALT1-mediated cleavage of CYLD” value ([3]; HBL-1, increasing concentrations, 24 hr) was “dose-dependent decrease in MALT1-mediated cleavage”. The “inhibition of MALT1 cleavage of CYLD” value ([3]; analogs 5 μM for 8 hr, Z-VRPR-FMK 50 μM as positive control) was “most potent compound”, the “activity against Caspase-9” value [4] was “little activity” and the “nuclear c-REL” value ([5]; isolated nuclei) was “reduced nuclear c-REL”. The “whole cell c-REL” value ([5]; whole cells) was “without affecting whole cell levels”, the intracellular concentration ([6]; 0.2 μM treated HBL-1 cells, 2 hr) was 5 µM and the “free drug within the cells” value ([6]; 0.2 μM, by 12 hr) was “virtually no detectable free MI-2”. For the same compound, the viability and apoptosis [7] was “profoundly suppressed” and the “response of cell number and viability” value [8] was “none of the GCBs did”.
